Experimental data taken from the NIST ThermoML archive (doi:10.1021/je900387e).
Numbers after ± are expanded uncertainties.

Experiment: xn = mol fraction of the nth substance listed
Conditions: Liquid, Pycnometric method

CCCCBr [1-bromobutane] + O=C=O
Conditions | mass density [kg/m3]
317.9 K, 12010 kPa, x1 = 0.0989 | 916 ± 4
317.9 K, 12060 kPa, x1 = 0.1495 | 1014 ± 4
317.9 K, 12520 kPa, x1 = 0.1495 | 1018 ± 4
317.9 K, 12610 kPa, x1 = 0.0989 | 923 ± 4
317.9 K, 12970 kPa, x1 = 0.1495 | 1022 ± 4
317.9 K, 13250 kPa, x1 = 0.0989 | 930 ± 4
317.9 K, 13430 kPa, x1 = 0.1495 | 1026 ± 4
317.9 K, 13860 kPa, x1 = 0.1495 | 1029 ± 4
317.9 K, 13890 kPa, x1 = 0.0989 | 937 ± 4
317.9 K, 14380 kPa, x1 = 0.1495 | 1033 ± 4
317.9 K, 14630 kPa, x1 = 0.0989 | 944 ± 4
317.9 K, 14800 kPa, x1 = 0.1495 | 1036 ± 4
317.9 K, 14980 kPa, x1 = 0.0989 | 947 ± 4
317.9 K, 15020 kPa, x1 = 0.1495 | 1038 ± 4
322.7 K, 8260 kPa, x1 = 0.1495 | 946 ± 4
322.7 K, 8470 kPa, x1 = 0.1495 | 948 ± 4
322.7 K, 8500 kPa, x1 = 0.0989 | 818 ± 4
322.7 K, 8710 kPa, x1 = 0.1495 | 952 ± 4
322.7 K, 8720 kPa, x1 = 0.0989 | 825 ± 4
322.7 K, 8810 kPa, x1 = 0.0683 | 731 ± 4
322.7 K, 8820 kPa, x1 = 0.0245 | 422 ± 4
322.7 K, 8840 kPa, x1 = 0.0245 | 425 ± 4
322.7 K, 8860 kPa, x1 = 0.0461 | 629 ± 4
322.7 K, 8880 kPa, x1 = 0.0245 | 432 ± 4
322.7 K, 8880 kPa, x1 = 0.0683 | 735 ± 4
322.7 K, 8900 kPa, x1 = 0.0461 | 632 ± 4
322.7 K, 8920 kPa, x1 = 0.0245 | 439 ± 4
322.7 K, 8920 kPa, x1 = 0.0989 | 830 ± 4
322.7 K, 8920 kPa, x1 = 0.1495 | 954 ± 4
322.7 K, 8940 kPa, x1 = 0.0461 | 639 ± 4
322.7 K, 8960 kPa, x1 = 0.0245 | 447 ± 4
322.7 K, 8970 kPa, x1 = 0.0683 | 740 ± 4
322.7 K, 8990 kPa, x1 = 0.0461 | 647 ± 4
322.7 K, 9000 kPa, x1 = 0.0245 | 455 ± 4
322.7 K, 9060 kPa, x1 = 0.0461 | 655 ± 4
322.7 K, 9070 kPa, x1 = 0.0245 | 465 ± 4
322.7 K, 9070 kPa, x1 = 0.0683 | 745 ± 4
322.7 K, 9110 kPa, x1 = 0.0245 | 473 ± 4
322.7 K, 9120 kPa, x1 = 0.0461 | 662 ± 4
322.7 K, 9160 kPa, x1 = 0.0245 | 482 ± 4
322.7 K, 9160 kPa, x1 = 0.0683 | 750 ± 4
322.7 K, 9160 kPa, x1 = 0.0989 | 836 ± 4
322.7 K, 9160 kPa, x1 = 0.1495 | 958 ± 4
322.7 K, 9190 kPa, x1 = 0.0461 | 671 ± 4
322.7 K, 9210 kPa, x1 = 0.0245 | 491 ± 4
322.7 K, 9250 kPa, x1 = 0.0683 | 755 ± 4
322.7 K, 9260 kPa, x1 = 0.0245 | 500 ± 4
322.7 K, 9270 kPa, x1 = 0.0461 | 679 ± 4
322.7 K, 9320 kPa, x1 = 0.0245 | 510 ± 4
322.7 K, 9360 kPa, x1 = 0.0683 | 759 ± 4
322.7 K, 9370 kPa, x1 = 0.0245 | 520 ± 4
322.7 K, 9380 kPa, x1 = 0.0461 | 687 ± 4
322.7 K, 9380 kPa, x1 = 0.1495 | 961 ± 4
322.7 K, 9400 kPa, x1 = 0.0989 | 841 ± 4
322.7 K, 9430 kPa, x1 = 0.0245 | 531 ± 4
322.7 K, 9480 kPa, x1 = 0.0461 | 696 ± 4
322.7 K, 9480 kPa, x1 = 0.0683 | 765 ± 4
322.7 K, 9500 kPa, x1 = 0.0245 | 542 ± 4
322.7 K, 9570 kPa, x1 = 0.0245 | 553 ± 4
322.7 K, 9600 kPa, x1 = 0.0683 | 770 ± 4
322.7 K, 9610 kPa, x1 = 0.0461 | 705 ± 4
322.7 K, 9650 kPa, x1 = 0.0989 | 847 ± 4
322.7 K, 9660 kPa, x1 = 0.0245 | 565 ± 4
322.7 K, 9670 kPa, x1 = 0.1495 | 964 ± 4
322.7 K, 9730 kPa, x1 = 0.0683 | 775 ± 4
322.7 K, 9750 kPa, x1 = 0.0245 | 576 ± 4
322.7 K, 9810 kPa, x1 = 0.0461 | 718 ± 4
322.7 K, 9850 kPa, x1 = 0.0245 | 590 ± 4
322.7 K, 9870 kPa, x1 = 0.0683 | 780 ± 4
322.7 K, 9910 kPa, x1 = 0.1495 | 968 ± 4
322.7 K, 9930 kPa, x1 = 0.0245 | 599 ± 4
322.7 K, 9930 kPa, x1 = 0.0989 | 853 ± 4
322.7 K, 9990 kPa, x1 = 0.0245 | 606 ± 4
322.7 K, 10000 kPa, x1 = 0.0245 | 608 ± 4
322.7 K, 10050 kPa, x1 = 0.0683 | 786 ± 4
322.7 K, 10090 kPa, x1 = 0.0461 | 733 ± 4
322.7 K, 10160 kPa, x1 = 0.1495 | 971 ± 4
322.7 K, 10230 kPa, x1 = 0.0683 | 791 ± 4
322.7 K, 10240 kPa, x1 = 0.0989 | 859 ± 4
322.7 K, 10420 kPa, x1 = 0.0461 | 748 ± 4
322.7 K, 10420 kPa, x1 = 0.0683 | 797 ± 4
322.7 K, 10440 kPa, x1 = 0.1495 | 974 ± 4
322.7 K, 10550 kPa, x1 = 0.0989 | 870 ± 4
322.7 K, 10620 kPa, x1 = 0.0683 | 802 ± 4
322.7 K, 10760 kPa, x1 = 0.1495 | 977 ± 4
322.7 K, 10820 kPa, x1 = 0.0461 | 764 ± 4
322.7 K, 10840 kPa, x1 = 0.0683 | 808 ± 4
322.7 K, 10910 kPa, x1 = 0.0989 | 872 ± 4
322.7 K, 10980 kPa, x1 = 0.1495 | 980 ± 4
322.7 K, 11080 kPa, x1 = 0.0683 | 814 ± 4
322.7 K, 11270 kPa, x1 = 0.0989 | 877 ± 4
322.7 K, 11290 kPa, x1 = 0.0461 | 779 ± 4
322.7 K, 11340 kPa, x1 = 0.0683 | 820 ± 4
322.7 K, 11370 kPa, x1 = 0.1495 | 984 ± 4
